According to patent US10517833B2 (Cardiora Pty Ltd., priority 2011, dated 2019):
In brackets after ≈: the same amount, converted by molar mass. Like-named read-outs stand apart in the source and are kept apart here.

Key:
[1] = test system: patients undergoing CABG surgery; conditions: ten minutes after drug administration versus before; cited from earlier work
[2] = pH solubility studies on Milrinone (saturated solubility in different buffers); type: physicochemical; conditions: for solubility at 24 h: thermodynamic from solid
Protocol: 1. pH 1.2-Hydrochloric Acid Buffer
3. pH 6.8-Phosphate Buffer
4. pH 7.4-Phosphate Buffer.
1. 2 mL buffer solution is placed into a 8 mL USP Type I clear glass vial (with screw cap and PTFE septa)
3. The addition of Milrinone is continued till the formation of saturated solution.
4. The pH of the saturated solution is measured after the addition of Milrinone.
5. If there is any difference in pH more than 0.1 units is observed when compared to the initial pH, the pH was adjusted with acid or base respectively to bring it to the initial pH.
6. The vials are closed with screw cap and kept for mixing using rotary tube shaker for 24 h.

[3] = test system: refractory HF patients; conditions: 12-month study, cited from earlier work
[4] = test system: patients with left ventricular dysfunction and/or pulmonary hypertension; conditions: 50 μg/kg loading then 0.5 μg/kg/minute, n=15; cited from earlier work
[5] = test system: patients with CHF; design: dose or concentration left out as unconfirmed; conditions: 15 minutes post-dosing, cited from earlier work
[6] = after 6 hours (equilibrium), AHF patients, cited from earlier work
[7] = test system: pediatric patients at high risk for developing low cardiac output syndrome (LCOS); conditions: cited from earlier work
[8] = test system: patients with severe CHF; conditions: oral, cited from earlier work
[9] = test system: patients with severe CHF; conditions: cited from earlier work
[10] = test system: patients with endstage CHF; conditions: compared with the preceding 3 months; cited from earlier work
[11] = test system: Human internal mammary arterial rings; conditions: rings pretreated with milrinone; cited from earlier work
[12] = test system: patients with NYHA class III or IV HF and pulmonary vascular resistance of 200 dynes/s/cm or more; design: dose or concentration left out as unconfirmed; conditions: cited from earlier work
[13] = test system: patients with class III or IV CHF; conditions: after milrinone therapy; 5 patients at baseline; cited from earlier work
[14] = test system: patients undergoing cardiopulmonary bypass; conditions: cited from earlier work
[15] = test system: pediatric patients with low cardiac output; conditions: intravenous; cited from earlier work

CNC[C@H](O)c1ccc(O)c(O)c1 [epinephrine]
change in IMA flow [1]: unchanged

Cc1[nH]c(=O)c(C#N)cc1-c1ccncc1 [milrinone, 1,2-dihydro-3-cyano-6-methyl-5-(4-pyridinyl)-2(1H)-pyridinone]
solubility ([2]; acidic pH, decreases gradually with increase in pH): highly soluble | solubility at 24 h ([2]; aqueous buffer, pH 4.5 Acetate Buffer): 1830 µg/mL (≈ 8.64 mM) | solubility at 24 h ([2]; aqueous buffer, pH 6.8 Phosphate Buffer): 742 µg/mL (≈ 3.51 mM) | solubility at 24 h ([2]; aqueous buffer, pH 7.4 Phosphate Buffer): 603 µg/mL (≈ 2.85 mM) | solubility at 24 h ([2]; hydrochloric acid buffer, simulated gastric fluid, pH 1.2 Hydrochloric Acide Buffer): 25400 µg/mL (≈ 120 mM) | emergency room admissions ([3]; from 21 in previous year): 10 | hospital admissions ([3]; from 75 in previous year): 34 | hospital days ([3]; from 528 in previous year): 150 | change in IMA flow [1]: 24% | weaning from cardiopulmonary bypass [4]: all patients were successfully weaned | pulmonary vascular resistance ([5]; from 3.9): 2.5 Wood units | Cardiac output ([5]; from 4.0): 5.1 L/min | pulmonary capillary wedge pressure ([5]; from 20): 15 mmHg | mean pulmonary artery pressure ([5]; from 35): 28 mmHg | plasma milrinone concentration ([6]; continuous infusion 0.25 μg/kg after loading dose): 97 ng/mL | plasma milrinone concentration ([6]; continuous infusion 0.5 μg/kg after loading dose): 197 ng/mL | plasma milrinone concentration ([6]; continuous infusion 0.75 μg/kg after loading dose): 284 ng/mL | patients who developed LCOS ([7]; high-dose group, within 36 hours): 9.6% | patients with prolonged hospital stays (longer than 15 days) ([7]; high-dose group): 13.5% | RRR of LCOS ([7]; low-dose group versus placebo, not statistically significant): 34% | patients who developed LCOS ([7]; low-dose group): 17.7% | patients with prolonged hospital stays (longer than 15 days) ([7]; low-dose group): 8.2% | mortality rate ([8]; at 1 year of therapy): 63% | mortality rate ([8]; at 6 months): 39% | patients with adverse effects ([8]; average 27 mg/day): 11% | patients with drug withdrawal due to adverse effects ([8]; average 27 mg/day): 4% | patients improved by at least one New York Heart Association functional class ([8]; within 1 month of therapy, remaining 94 patients): 51% | left ventricular end-diastolic pressure ([9]; after median short-term infusion 75 μg/kg IV, from 27 at baseline): 18 mmHg | increase in left ventricular ejection fraction ([9]; following a 7.5 mg oral dose, 10 patients on drug for 6 months or longer): 27% | decrease in mean arterial pressure ([9]; intravenous): 6% | increase in peak positive first derivative of left ventricular pressure (dP/dT) ([9]; intravenous): 28% | increase in resting heart rate ([9]; intravenous): 8% | fever, thrombocytopenia, or gastrointestinal toxicity ([9]; oral therapy, average 29 mg daily, up to 11 months): No evidence | drop in number of hospitalizations [10]: fourfold | vasoconstriction by K+, ET-1, U46619 and phenylephrine [11]: significantly less vasoconstricition | mean decrease in pulmonary vascular resistance ([12]; at 5 minutes): 31% | duration of response [12]: at least 20 minutes | inducible VT during programmed right ventricular stimulation [13]: none of the patients experienced inducible VT | Plasma concentrations of IL1-beta and IL6 ([14]; after CPB, versus control group, 0.5 μg/kg/minute for 24 hours): significantly lower | concentrations of cyclic adenosine monophosphate ([14]; versus controls): significantly increased | average peak plasma concentration [15]: 235 ng/mL | mean decrease in blood pressure [15]: 12%
